Entries after “also recorded” stand apart in the source; their conditions may differ.
Experiments:
[1] = tested on: fentanyl-induced respiratory depression; assay: Fentanyl-induced respiratory depression model to assess restoration of ventilatory control; assay type: in vivo, Sprague-Dawley male rats; settings: rats; for restoration of ventilatory control / reversing the fentanyl-induced respiratory depression: fentanyl 75 to 150 micrograms per kilogram, intravenous infusion
[2] = cited from earlier work
[3] = tested on: apnea episodes; settings: cited from earlier work

With `O=C(O)CCCCN[C@@H](CS)C(=O)O` [GLN 10,013] the “restoration of ventilatory control / reversing the fentanyl-induced respiratory depression” value [1] was “successfully restores ventilatory control”, the “reversal of respiratory depression, acute phase” value ([1]; fentanyl-induced, acute phase (0 to 5 minutes)) was “reverse respiratory depression” and the “reversal of respiratory depression, chronic phases” value ([1]; fentanyl-induced, chronic phases (10 to 50 minutes)) was “reverse respiratory depression”.
With `O=C(O)CNC(=O)[C@H](CS)Nc1nccs1` [GLN 10,015] the “restoration of ventilatory control / reversing the fentanyl-induced respiratory depression” value [1] was “not be effective; also recorded: does not restore”.
For `CC(=O)N[C@@H](CS)C(=O)O` [N-acetyl-L-cysteine], the “absorption after oral administration” value [2] is listed as “poorly absorbed” and the “first pass metabolism by the liver” value ([2]; oral administration, destroys most of the parent drug) is listed as “extensive first pass metabolism”.
For `CC(=O)Nc1nnc(S(N)(=O)=O)s1` [acetazolamide], the “apnea episodes after treatment” value ([3]; central apnea patients, low doses, after one month of treatment (25.5 pre-treatment)) is given as 6.8, the “decrease in apnea episodes” value ([3]; central apnea patients, low doses, after one month of treatment) is given as 73% and the “reduction in apnea episodes” value ([3]; patients that had predominantly obstructive sleep apnea) is given as “about 25%”.

From patent US20100105685A1, “S-Nitrosothiol Compounds and Related Derivatives” (Galleon Pharmaceuticals, Inc., priority 2006, published 2010)
